Test results as given in patent US20240307575A1, “METHODS FOR […] MATTER” (priority 2021, published 2024).
Values joined by “and” are separate entries in the source; they are usually repeats but may differ in a detail not shown here. Identical values can stand only once. Like-named read-outs stand apart in the source and are kept apart here.

Key:
Total pathogen = test: Example 4: total pathogen count after NaDCC and/or H2O2 pulses; format: cell-based; settings: for Total pathogen Count: control 490,000; for Fold-Reduction: versus control
Protocol: (§1) Aqueous solutions of NaDCC at variating concentrations from 1% [w/w] up to 5% [w/w] were prepared. […] Table 5 describes various sterilants and their effects:
(§2) Each pulse with disinfectant consisted of vacuum to 1 mbar, then introduction of a sterilant to 100 mbar, 6 minutes of keeping the sterilant at that pressure, introduction of air to 500 mbar, then vacuum.

Yeast & Molds = test: Example 4: yeast and molds count after NaDCC and/or H2O2 pulses; format: cell-based; settings: control 152,000
Protocol: as §1, §2

total count [1] = test: Example 2, Table 3: total count after hydrogen peroxide pulses with air or ozone, with or without ozone preheat; format: cell-based; settings: HPO to 75 mbar + air to 500 mbar 40° C. one pulse, control 130,000
Protocol: (§3) In table 3, the samples were all preheated to, 40° C. Some of the samples, indicated “O3 preheat” were preheated in the presence of ozone at atmospheric pressure. […] Air was subsequently introduced to a pressure of 500 mbar. Then the chamber was evacuated.

yeast and mold = settings: hydrogen peroxide solution 50% in water, 40° C. 40 ml + 1 m; control 20,800; listed as H2O2
Protocol: (§4) A control sample was used, which was not treated, to show microbial load before treatment.
(§5) In each of the trials above, the H2O2 solution was introduced over a period of 3 minutes until a pressure of 70-100 mbar, by introduction of 4 injections, each injection of 10 ml. […] Some of the batches indicating “vent 700” were slowly vented to 700 mbar with air.

total count [2] = settings: hydrogen peroxide solution 50% in water, control 208,800
Protocol: as §4, §5

Microbe mix (all 4) = settings: 15% [w/w] hydrogen peroxide vapor, mean of batches 1-3
Protocol: (§6) In this example, cannabis inflorescence (200 mg) was thoroughly sterilized, then inoculated by soaking in 30 ml of microbial suspension, using each of the microbes in the amounts described in table 7 below, including a microbe mix, consisting of a mixture of all 4 microbes in the table.
(§7) After soaking each sample of inflorescence in the respective microbial suspension, each sample was air dried in a laminar flow dryer overnight for 18 hours and refrigerated until sterilization was initiated. Inflorescence was sterilized 24, 48 and 72 hours post inoculation, designated batch 1, batch 2 and batch 3, respectively. Microbial load analysis was performed after each sterilization day. Samples were also inoculated, and not sterilized, to serve as controls. A saline solution was applied to some of the samples instead of a microbial suspension, to serve as a control.
(§8) Analysis of microbial count was performed to samples before and after sterilization, and each microbe count was determined using sub-samples of […] each from each sample, and was performed in triplicate. The sub-samples were ground in 20 ml of saline solution, seeded in a petri dish with agar, which were then incubated at 37° C. for 48 hours, for counting of colonies, to determine number of colony forming units (CFU) per cannabis sample. Logarithmic reduction of pathogen as compared to non-sterilized sample was determined.
(§9) Samples of cannabis inflorescence (200 mg) were introduced into a vacuum chamber in either a top tray or a middle tray. The top tray was located in the uppermost location in the chamber, where the highest temperature is measured. The temperature was set to be maintained at 50° C., however, due to the fact that heat rises within the chamber, and that sterilant solution was introduced to the chamber as a vapor having a temperature of about 140-150° C., in some of the experiments the temperature in the uppermost chamber reached 54° C.±1° C. and in some 58° C.±2° C. Two or three pulses of disinfection were performed for each sample, and the results are described in Table 8. In each pulse, pressure was reduced to 3±2 mbar. […] Then, air was added and pressure was maintained at 500 mbar for 6 minutes at that pressure. The air was then removed from the chamber and the pressure reduced to 3±2 mbar. This process constitutes one pulse. One or two additional pulses were performed for samples, for a total of two pulses per sample, or three pulses per sample. In the final pulse, after initiating a vacuum, air was then introduced and the chamber was […] to a pressure of 1 atmosphere.
(§10) For each pathogen, mean log reduction was calculated by log10 transformation of CFU values, analyzing each microbial treatment process separately. Sterilization processes were compared with a 1-way ANOVA on log transformed data.

Candida albicans = settings: for mean log reduction: 15% [w/w] hydrogen peroxide vapor, mean of batches 1-3
Protocol: as §6, §7, §8, §9, §10

E. Coli = settings: 15% [w/w] hydrogen peroxide vapor, mean of batches 1-3
Protocol: as §6, §7, §8, §9, §10

Aspergillus brasiliensis = settings: for mean log reduction: 15% [w/w] hydrogen peroxide vapor, mean of batches 1-3
Protocol: as §6, §7, §8, §9, §10

Pseudomonas aeruginosa = settings: 15% [w/w] hydrogen peroxide vapor, mean of batches 1-3
Protocol: as §6, §7, §8, §9, §10

yeasts & molds = test: Example 2, Table 3: yeast and mold count after hydrogen peroxide pulses with air or ozone, with or without ozone preheat; format: cell-based; settings: HPO to 75 mbar + air to 500 mbar 40° C. one pulse, control 1,950
Protocol: as §3

Yeast & Mold = settings: for Yeast & Mold: HPO to 60 mbar 6 minutes, air 500 mbar 6 minutes, 40°, control 1,150,000; for Yeast & Mold Fold-Reduction: versus control
Protocol: (§11) For two of the samples, no preheating was performed, and for two of the samples, preheating was performed. Preheating involved warming the plant matter in the chamber at 40° C. for 5 minutes. Either one or two pulses of sterilant were performed. All pulses were performed at 40°. Before each pulse, the pressure in the chamber was reduced to 1 mbar.
(§12) Then, air was added and pressure was maintained at 500 mbar for 6 minutes.

total count [3] = settings: for Total Count: HPO to 60 mbar 6 minutes, air 500 mbar 6 minutes, 40°, control 1,350,000; for Total Count Fold-Reduction: versus control
Protocol: as §11, §12

[4] = Preheat (40° C. for 5 minutes), one pulse
[5] = Preheat (40° C. for 5 minutes), two pulses

## O=c1nc([O-])n(Cl)c(=O)n1Cl.[Na+] [NaDCC, Sodium dichloroisocyanurate]
Total pathogen; NaDCC 1% [w/w], 1 pulse
  Total pathogen Count: 35,100
  Fold-Reduction: 14
Total pathogen; NaDCC 1% [w/w], 2 pulses
  Total pathogen Count: 17,900
  Fold-Reduction: 27
Total pathogen; NaDCC 2% [w/w], 1 pulse
  Total pathogen Count: 24,500
  Fold-Reduction: 20
Total pathogen; NaDCC 2% [w/w], 2 pulses
  Total pathogen Count: 11,075
  Fold-Reduction: 44
Total pathogen; NaDCC 5% [w/w], 1pulse
  Total pathogen Count: 32,667
  Fold-Reduction: 15
Total pathogen; NaDCC 5% [w/w], 2 pulses
  Total pathogen Count: 40,833
  Fold-Reduction: 12
Yeast & Molds; NaDCC 1% [w/w], 1 pulse
  Yeast & Molds Count: 10,857
Yeast & Molds; NaDCC 1% [w/w], 2 pulses
  Yeast & Molds Count: 5,553
Yeast & Molds; NaDCC 2% [w/w], 1 pulse
  Yeast & Molds Count: 7,600
Yeast & Molds; NaDCC 2% [w/w], 2 pulses
  Yeast & Molds Count: 3,436
Yeast & Molds; NaDCC 5% [w/w], 1pulse
  Yeast & Molds Count: 10,133
Yeast & Molds; NaDCC 5% [w/w], 2 pulses
  Yeast & Molds Count: 12,667

## OO [hydrogen peroxide]
Total count [1]; sample weight 100 gr
  TC: 11,000 cfu/ml
Total count [1]; sample weight 300 gr
  TC: 48,000 cfu/ml
Total pathogen; 50% H2O2, 2 pulses
  Total pathogen Count: 8,033
  Fold-Reduction: 61
Yeast and mold
  Y&M: 2,600 cfu/ml and 2,500 cfu/ml
Total count [2]; 30° C. 40 ml, 200 g inflorescence
  TC: 31,000 cfu/ml
Total count [2]; 40° C. 40 ml + 1 m + Vent700, listed as H2O2
  TC: 12,000 cfu/ml and 19,000 cfu/ml
Total count [2]; 40° C. 40 ml, listed as H2O2
  TC: 15,000 cfu/ml and 10,000 cfu/ml
Microbe mix (all 4); 2 pulses, Middle tray
  mean log reduction: 2.8
Microbe mix (all 4); 2 pulses, Top tray
  mean log reduction: 5.5
Microbe mix (all 4); 3 pulses, Middle tray
  mean log reduction: 5.1
Microbe mix (all 4); 3 pulses, Top tray
  mean log reduction: 7.0
Candida albicans; 2 pulses, Middle tray
  mean log reduction: 2.8
Candida albicans; 2 pulses, Top tray
  mean log reduction: 6.3
Candida albicans; 3 pulses, Middle tray
  mean log reduction: 6.0
Candida albicans; 3 pulses, Top tray
  mean log reduction: 6.3
Candida albicans; top tray, both 2 and 3 pulses
  reduction in microbial count: ≥ 6 fold
E. Coli; 2 pulses, Middle tray
  mean log reduction: 3.5
E. Coli; 2 pulses, Top tray
  mean log reduction: 3.5
E. Coli; 3 pulses, Middle tray
  mean log reduction: 4.3
E. Coli; 3 pulses, Top tray
  mean log reduction: 4.8
Aspergillus brasiliensis; 2 pulses, Middle tray
  mean log reduction: 2.0
Aspergillus brasiliensis; 2 pulses, Top tray
  mean log reduction: 3.3
Aspergillus brasiliensis; 3 pulses, Middle tray
  mean log reduction: 2.2
Aspergillus brasiliensis; 3 pulses, Top tray
  mean log reduction: 3.3
Aspergillus brasiliensis; sterilized at 24 hours post inoculation
  reduction in microbial count after treatment: 5 log
Pseudomonas aeruginosa; 2 pulses, Middle tray
  mean log reduction: 3.7
Pseudomonas aeruginosa; 2 pulses, Top tray
  mean log reduction: 5.3
Pseudomonas aeruginosa; 3 pulses, Middle tray
  mean log reduction: 4.7
Pseudomonas aeruginosa; 3 pulses, Top tray
  mean log reduction: 7.2
Yeasts & molds; sample weight 100 gr
  Y&M: 100 cfu/ml
Yeasts & molds; sample weight 300 gr
  Y&M: 30 cfu/ml
Yeast & Molds; 50% H2O2, 2 pulses
  Yeast & Molds Count: 2,492
Yeast & Mold; No preheat, one pulse
  Yeast & Mold: 19,828 cfu/ml
  Yeast & Mold Fold-Reduction: 58
Yeast & Mold; No preheat, two pulses
  Yeast & Mold: 3,249 cfu/ml
  Yeast & Mold Fold-Reduction: 354
Yeast & Mold; [4]
  Yeast & Mold: 3,433 cfu/ml
Yeast & Mold; [5]
  Yeast & Mold: 415 cfu/ml
Yeast & Mold; Preheat, one pulse
  Yeast & Mold Fold-Reduction: 335
Yeast & Mold; Preheat, two pulses
  Yeast & Mold Fold-Reduction: 2,770
Total count [3]; No preheat, one pulse
  Total Count: 5,556 cfu/ml
  Total Count Fold-Reduction: 243
Total count [3]; No preheat, two pulses
  Total Count: 3,082 cfu/ml
  Total Count Fold-Reduction: 438
Total count [3]; [4]
  Total Count: 2,316 cfu/ml
Total count [3]; [5]
  Total Count: 1,028 cfu/ml
Total count [3]; Preheat, one pulse
  Total Count Fold-Reduction: 583
Total count [3]; Preheat, two pulses
  Total Count Fold-Reduction: 1,313
Total count [3]; pre-heating stage and two sterilant pulses combined
  decontamination, reduction of microbes: over 3 orders of magnitude
